Laboratory results as given in paper PMC7076440, “New Preclinical Development of a c-Met Inhibitor and Its Combined Anti-Tumor Effect in c-Met-Amplified NSCLC” (Pharmaceutics, 2020).
“And” between values parts separate entries of the source, which are not always exact repeats. Identical values can stand only once.

Columns and labels:
[1] = log D / log P, octanol/water; format: physicochemical
Description: ABN401 solution (10 μg/mL) was mixed with octanol at a ratio of 1:1 in a glass vial and placed horizontally in a Digital Bio Rotator (SeoLin Bioscience, Seongnam, Korea), and shaken at a constant 90 rpm for 24 h. After 6 h of equilibrium under room temperature, two phases of water and octanol were separated using a separating funnel. The experiment was repeated five times. The concentration of ABN401 at each phase was analyzed by HPLC and log P and log D were calculated using the Henderson-Hasselbalch equation below with the previously determined pKa value. (4) logDbases =logP+log⎣1/(1+ 10^pKa−pH)⎦

Dynamic vapor sorption = format: physicochemical; details: 25 °C, 5% to 95% RH
Description: Moisture sorption analyses were utilized using a VTI-SA vapor sorption analyzer (TA Instruments, New Castle, DE, USA). API was placed into the sample holder. The percentage of relative humidity (% RH) in the chamber was increased from 5% to 95% RH for moisture adsorption, followed by a decrease in % RH from 95% to 5% for moisture desorption. A drying phase (i.e., 40 °C, less than 0.01% weight loss in 2 min) was set to run before to the analysis. The temperature was set at a 25 °C throughout the analysis. The program criteria were set to 0.0001% weight change or 2 min stability of weight gained or lost before the program could proceed to the next set parameter.

[2] = Pharmacokinetic study in beagle dogs; format: in vivo; details: for BA: PO; for BA / Tmax / AUC(0-inf) / AUC(0-t) / Cmax / MRT last / half-life: beagle dogs
Source text: Male beagle dogs were purchased from Marshall, Beijing, China. They were housed under controlled humidity, temperature, and a 12L:12D lighting schedule. Before the experiment, the animals were fed less than 300 g/day for 2 days and those with a body weight around 7.0 ± 0.5 kg were selected for the pharmacokinetic study (n = 3). They were fasted overnight before the experiments but allowed to drink water. This study was reviewed, assessed, and approved by the Institutional Animal Care and Use Committee (IACUC) of the Korea Institute of Toxicology (KIT). The project identification codes were N117008 and N116047, signed on 31 May 2017. For the experiments, 0.5-mL blood samples were collected from each animal at selected intervals and loaded into K2-EDTA tubes. After centrifugation at 13,200 rpm for 5 min, quantitative analysis was performed using LC-MS/MS. Acetic acid buffer (0.1 M) at pH 4.0 with 20% PEG400 was selected as the intravenous solution for ABN401 and WinNonlinTM (Version 5.2.1, Pharsight, USA) was used to calculate the pharmacokinetic parameters (i.e., T1/2: terminal half-life, Cmax: maximum observed peak concentration, Tmax: time to reach Cmax, AUClast: area under the time-concentration curve from zero to the last quantifiable time-point, AUCinf: area under the time-concentration curve from zero to infinity, MRTlast: mean residence time from zero to the last quantifiable time-point). The bioavailability (BA) of each dose was calculated using the following equation:Bioavailability = (AUClast_po/AUClast_iv) × 100(5)
HPLC system (Agilent 1200, Santa Clara, CA, USA), consisting of a binary pump, a degasser, and a refrigerated autosampler (at 10 °C), was used in this study. Analytical samples were separated on the Agilent Eclipse XDB-C18 (3.5 um, 2.1 × 50 mm) at 23 °C. The mobile phase was composed of solvent A (10 mM ammonium formate in purified water) and solvent B (0.1 % formic acid in acetonitrile) and delivered at a flow rate of 0.3 mL/min. In this study, the gradient separation (i.e., the initial condition of the mobile phase consisted of 80% of solvent A and 20% of solvent B, then solvent A was decreased to 0% within 2 min and maintained for 5 min, followed by an increase to 80% within 0.2 min, maintained until 10 min) was used with a 10-min run time per sample. The MS system was composed of an API 4000 Sciex triple quadruple mass spectrometer (AB Sciex, Framingham, MA, USA). The triple quadrupole mass spectrometer was equipped with a turbo ion spray source. The MS/MS detection involved multiple reaction-monitoring in the positive ionization mode. The intensive tracer ion mass for each compound was 567.5 → 467.2 for ABN401 and 237.3 → 194.11 for carbamazepine as an internal standard. The conditions for the electrospray interface were: curtain gas, 20 psi; collision gas, medium; ion spray voltage, 5000 V; temperature, 500°C; ion source gas 1, 50 psi and ion source gas 2, 55 psi. The optimized voltage parameters for the analytes were as follows: declustering potential (61 V), entrance potential (10 V), collision energy (28 V), and collision cell exit potential (12 V). Data acquisition, quantification, and calculations were performed with the Analyst software version 1.4.2 (AB Sciex, Framingham, MA, USA).

[3] = male, beagle, dog, plasma, iv, 1 mg/kg, mean ± SD
[4] = male, beagle, dog, plasma, po, 1 mg/kg, capsule with MCC, mean ± SD
[5] = male, beagle, dog, plasma, po, 5 mg/kg, capsule with MCC, mean ± SD
[6] = male, beagle, dog, plasma, po, 5 mg/kg, capsule without MCC, mean ± SD
[7] = male, beagle, dog, plasma, po, 10 mg/kg, capsule with MCC, mean ± SD

CN1CCN(Cc2ccc(-c3cnc(N4CCOC(Cn5nnc6ncc(-c7cnn(C)c7)nc65)C4)nc3)cc2)CC1 (stereo not shown) [ABN401]
logD ([1]; average ± SD of five runs): 1.41 ± 0.08 | logP at 24 h ([1]; average ± SD of five runs): 2.46 ± 0.04 | logD ([1]; pH 6.4, run 3, pH 6.40): 1.37 | logP at 24 h ([1]; run 1, from log D and pKa (Henderson-Hasselbalch)): 2.41 | logD ([1]; run 1, pH 6.41): 1.3 | logP at 24 h ([1]; run 2, from log D and pKa): 2.43 | logD ([1]; run 2, pH 6.59): 1.48 | logP at 24 h ([1]; run 3, from log D and pKa): 2.5 | logP at 24 h ([1]; run 4, from log D and pKa): 2.51 | logD ([1]; run 4, pH 6.49): 1.47 | logP at 24 h ([1]; run 5, from log D and pKa): 2.45 | logD ([1]; run 5, pH 6.53): 1.45 | moisture adsorption (Dynamic vapor sorption): relatively less adsorptive to moisture | BA ([2]; 1 mg/kg, capsule with MCC, mean ± SD): 28.3 ± 15.8% | BA ([2]; 5 mg/kg, capsule with MCC, mean ± SD): 30.7% and 30.7 ± 1.7% | BA ([2]; 5 mg/kg, capsule without MCC, mean ± SD): 30.7% and 30.7 ± 15.1% | BA ([2]; 10 mg/kg, capsule with MCC, mean ± SD): 11.3 ± 2.7% | Tmax ([2]; male, beagle, dog, plasma, iv, 1 mg/kg): 0.083 h | AUC(0-inf) [2, 3]: 287 ± 108 ng·h/mL | AUC(0-t) [2, 3]: 266 ± 105 ng·h/mL | Cmax [2, 3]: 308 ± 271 ng/mL | MRT last [2, 3]: 1.5 ± 0.7 h | half-life [2, 3]: 1.9 ± 0.7 h | AUC(0-inf) [2, 4]: 96.2 ± 40.7 ng·h/mL | AUC(0-t) [2, 4]: 75.4 ± 42 ng·h/mL | Cmax [2, 4]: 8 ± 3.8 ng/mL | MRT last [2, 4]: 7.6 ± 2.5 h | Tmax [2, 4]: 1.3 ± 0.6 h | half-life [2, 4]: 9.4 ± 3.2 h | AUC(0-inf) [2, 5]: 456 ± 28.5 ng·h/mL | AUC(0-t) [2, 5]: 409 ± 23 ng·h/mL | Cmax [2, 5]: 50.8 ± 12.4 ng/mL | MRT last [2, 5]: 8.6 ± 2.7 h | Tmax [2, 5]: 1.5 ± 0.7 h | half-life [2, 5]: 7.6 ± 4.5 h | AUC(0-inf) [2, 6]: 425 ± 218 ng·h/mL | AUC(0-t) [2, 6]: 409 ± 201 ng·h/mL | Cmax [2, 6]: 60.3 ± 29.1 ng/mL | MRT last [2, 6]: 6.4 ± 0.7 h | Tmax [2, 6]: 2 h | half-life [2, 6]: 4.9 ± 0.9 h | Tmax ([2]; male, beagle, dog, plasma, po, 10 mg/kg, across the doses 1, 5, 10 mg/kg): 1.3 to 2 h | AUC(0-inf) [2, 7]: 424 ± 186 ng·h/mL | AUC(0-t) [2, 7]: 302 ± 72 ng·h/mL | Cmax [2, 7]: 52.5 ± 13.5 ng/mL | MRT last [2, 7]: 6.3 ± 3.4 h | Tmax [2, 7]: 2 h | half-life [2, 7]: 7.7 ± 5.8 h | bioavailability ([2]; male, beagle, dog, plasma, oral, dogs, except at 10 mg/kg): ~30%
